The values below come from US20110166135A1, “AROMATIC NITROGEN-CONTAINING 6-MEMBERED RING COMPOUNDS AND THEIR USE” (priority 2008, published 2011).

pIC50: −log10 of the molar value.

One may read the pIC50 as the negative decadic logarithm of the IC50, by convention in mol/L. A word on the melting point: it is the temperature of the solid-liquid transition.

The first series concerns the target T1, PDE10 (PDE10A) (Bos taurus, UniProt A0A3Q1MHJ4).
T1 construct: isolated and prepared from bovine corpus striatum; from tissue; host or cells: bovine corpus striatum
T1 sequence (A0A3Q1MHJ4 1-1068): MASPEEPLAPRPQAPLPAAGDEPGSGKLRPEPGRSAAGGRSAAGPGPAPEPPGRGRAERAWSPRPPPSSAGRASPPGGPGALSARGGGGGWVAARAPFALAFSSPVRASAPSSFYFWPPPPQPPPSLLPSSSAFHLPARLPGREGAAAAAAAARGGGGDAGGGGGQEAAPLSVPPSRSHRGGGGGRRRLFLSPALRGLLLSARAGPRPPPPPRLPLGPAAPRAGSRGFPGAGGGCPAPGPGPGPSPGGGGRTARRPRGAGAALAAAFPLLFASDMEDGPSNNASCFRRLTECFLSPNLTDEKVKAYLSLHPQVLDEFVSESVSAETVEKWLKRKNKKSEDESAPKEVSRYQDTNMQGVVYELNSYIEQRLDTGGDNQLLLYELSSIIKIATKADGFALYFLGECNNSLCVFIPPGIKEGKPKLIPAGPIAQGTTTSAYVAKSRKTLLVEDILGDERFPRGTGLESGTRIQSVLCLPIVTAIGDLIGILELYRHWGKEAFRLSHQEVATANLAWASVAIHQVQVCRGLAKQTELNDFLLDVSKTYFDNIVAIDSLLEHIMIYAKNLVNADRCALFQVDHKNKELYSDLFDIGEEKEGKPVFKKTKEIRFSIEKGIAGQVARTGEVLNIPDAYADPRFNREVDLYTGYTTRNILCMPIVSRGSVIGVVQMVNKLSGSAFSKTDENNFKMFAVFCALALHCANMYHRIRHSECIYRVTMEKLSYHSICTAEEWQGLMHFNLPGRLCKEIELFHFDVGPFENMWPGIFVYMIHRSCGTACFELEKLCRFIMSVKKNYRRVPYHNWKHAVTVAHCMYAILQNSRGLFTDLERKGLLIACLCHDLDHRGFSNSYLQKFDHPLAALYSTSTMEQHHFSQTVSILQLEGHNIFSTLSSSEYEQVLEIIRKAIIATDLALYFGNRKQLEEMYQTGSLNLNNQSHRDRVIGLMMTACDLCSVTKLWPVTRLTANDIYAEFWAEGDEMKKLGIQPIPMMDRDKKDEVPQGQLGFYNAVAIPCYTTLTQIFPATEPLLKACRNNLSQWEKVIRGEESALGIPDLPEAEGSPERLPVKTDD
Kind of series: Measurement of PDE10 inhibitory activity (radiolabeled nucleotide PDE assay, Method-A or Method-B). It is filed as biochemical. As to conditions: Method-A: [3H]-cAMP substrate, 37° C., 30 minutes, enzyme from bovine corpus striatum. Here is the method:
(1) The enzyme PDE10 (PDE10A) was isolated and prepared from bovine corpus striatum, according to the methods described in references Fujishige et al., Eur. J. Biochem., vol. 266, pp. 1118-1127, 1999. The enzyme solution obtained was used for a PDE assay.
The PDE assay was performed according to the method described in Kotera et al. (Kotera et al., Biochem. Pharmacol., vol. 60, pp. 1333-1341, 2000), by the radiolabeled nucleotide method.
Specifically, the measurements of the inhibitory activities were carried out in one of the following methods.
(Method-A) The enzymatic reaction was carried out in 500 μl of assay buffer [50 mM Tris-HCl, pH8.0, 5 mM MgCl2, 4 mM 2-mercaptoethanol, 0.33 mg/ml bovine serum albumin] containing as a substrate about 4.8 nM [^3H]-cAMP+0.25 μM unlabeled cAMP (available from Amersham Biosciences) or about 9.6 nM [^3H]-cAMP.
The reaction was carried out for 30 minutes while keeping the temperature at 37° C. It was stopped by boiling the reaction mixture for 1.5 minutes, and further added thereto was 100 μl of snake venom (Crotalus atrox snake venom 1 mg/ml) and the temperature was kept at 37° C. for 30 minutes. Then 500 μl of methanol was added, and the reaction mixture was applied to a Dowex column (1×8 200-400). Subsequently, scintillation cocktail was added to each aliquot of the eluant, and the radioactivity was measured in a scintillation counter. Thus, PDE activity taking cAMP as a substrate (an activity to hydrolyze cAMP) was measured.
In the measurements of the inhibitory activities of compounds, a test compound was added to the above-mentioned reaction mixture, in various concentrations, and PDE activity was measured in the presence or absence of the test compound. From the measurements, its PDE10 (PDE10A) inhibitory activity was determined.
(Method-B) The test compounds were dissolved in dimethyl sulfoxide (DMSO). 2 μL of the compound solution was added to 96 well plate, and the reaction mixture (20 μL of PDE enzyme solution in 50 mM Tris-HCl, pH 8.0, 40 μL of the assay buffer (50 mM Tris-HCl, pH 8.0, 2 mM MgCl2, 0.07% 2-mercaptoethanol, and 0.825 mg/mL bovine serum albumin), and 20 μL of 1 mg/mL snake venom) was added to the 96 well plate. The enzyme reaction was started by adding and mixing with substrate solution of 20 μL containing approximate 35 nM [5′,8-3H]cAMP in 50 mM Tris-HCl, pH 8.0. The final concentration of cAMP in the reaction mixtures was 7 nM. The reaction mixtures were incubated at room temperature for 90 min under dark conditions. After incubation, the reaction was stopped by adding 100 μL of methanol and resultant solutions were applied to filter plate containing Dowex (1×8 200-400) and centrifuged. 50 μL of the eluate together with wash eluate with additional 100 μL methanol was collected in another plate and the radioactivity was measured with 250 μL of scintillant.
(2) The compounds in the Examples below were tested for PDE inhibition using (Method-A) or (Method-B) described above.
On to `COc1ccc(-c2cc(N3CCCC3)nc(/C=C/c3nc(C)nc4c3CCN4C)n2)cc1OC` [Example 1.055], for which the pIC50 was 8.01.
In turn, `COc1ccc(-c2cc(N3CCCC3)nc(/C=C/c3nc(C)cnc3C)n2)cc1OC` [Example 1.057] had a negative logarithm of the IC50 (pIC50) of 7.54.
Turning to `Cc1cnc(/C=C/c2nc(-c3ccccn3)cc(N3CCCC3)n2)nc1N(C)C` [Example 1.071], the pIC50 is 7.51. The pIC50 values of the last two compounds are within 0.2 log units of each other.
The compound `COc1ccc(-c2cc(N3CCn4ccnc4C3)nc(/C=C/c3nc(N(C)C)c4ccccc4n3)n2)cc1OC` [Example 1.008] showed a pIC50 of 9.36.
`COc1ccc(-c2cc(N3CCN(C)CC3)nc(/C=C/c3nc(-n4ccnc4)c4ccccc4n3)n2)cc1OC` [Example 1.010]: the negative-log IC50 (pIC50) is 7.34. This pIC50 lies 2.02 log units lower than the previous one.
For `CN(C)c1nc(OCc2cc(N3CCCC3)nc(-c3cccnc3)n2)nc2ccccc12` [Example 3.034], the pIC50 is 7.62.
Regarding `COc1ccc(-c2cc(N3CCN(C)C3=O)nc(/C=C/c3nc(N4CCCC4)c4ccccc4n3)n2)cc1OC` [Example 1.013], the pIC50 is 8.38.
Compound `COc1cc(OC)nc(OCc2cc(-c3ccc(OC)c(OC)c3)nc(N3CCCC3)n2)n1` [Example 3.029] had a pIC50 of 7.42.
For the compound `Cc1nc(OCc2cc(-c3ccco3)nc(N3CCCC3)n2)nc(N(C)C)c1C` [Example 3.017], the negative-log IC50 (pIC50) was 7.46. This pIC50 and that of the compound before are within 0.2 log units of each other.

Staying with this series, now noted: Method-B: 96 well plate, 7 nM cAMP, room temperature, 90 min, enzyme from bovine corpus striatum.
Take `Cc1nc(/C=C/c2nc(OC3CCOCC3)cc(N3CCCC3)n2)nc(N(C)C)c1C` [Example 2.053]: the pIC50 is 9.19.
In the case of `CCOc1nc2ccccc2nc1CCc1nc(C(=O)NC2CCOCC2)cc(N2CCCC2)n1` [Example 5.012], the negative-log IC50 (pIC50) is 8.64. This pIC50 lies 0.55 log units lower than the previous one.
The same measure, in the same setting: in the case of `CN(C)c1nc(/C=C/c2nc(OC3CCCCC3)cc(N3CCCC3)n2)nc2ccccc12` [Example 2.035] it was 9.05; in that of `Cc1nc2ccccc2nc1/C=C/c1nc(CNC2CCOCC2)cc(N2CCCC2)n1` [Example 1.268], 9.15; in that of `Cc1nc2ccccc2nc1/C=C/c1nc(C(=O)N(C)C2CCOCC2)cc(N2CCC(O)C2)n1` (stereo not shown) [Example 1.226], 7.70.
For `CN(C(=O)c1cc(N2CCCC2)nc(/C=C/c2nc3ccccc3nc2C2CC2)n1)C1CCOCC1` [Example 1.253], the pIC50 is 8.85.
On the same count and under the same terms, with `Cc1nc2ccccc2nc1/C=C/c1nc(C(=O)NN2CCCCC2)cc(N2CCCC2)n1` [Example 1.220] the figure was 9.31; with `CN(C)c1nc(/C=C/c2nc(OC[C@@H]3CCC(=O)N3)cc(N3CCCC3)n2)nc2ccccc12` [Example 2.048], 9.68; with `Cc1nc2ccccc2nc1/C=C/c1nc(C(=O)NC2CCOCC2)cc(N2CCCC2)n1` [Example 1.208], 9.21.
Regarding `Cc1nc2ccccc2nc1CCc1nc(C(=O)NC[C@@H]2CCCO2)cc(N2CCCC2)n1` [Example 5.006], the pIC50 is 8.48.
`CN(C)c1nc(/C=C/c2nc(C(=O)NN3CCCCC3)cc(N3CCCC3)n2)nc2ccccc12` [Example 1.159] showed a pIC50 of 9.22.
Compound `Cc1nc2ccccc2nc1/C=C/c1nc(C(=O)N(C2CCOCC2)C2CC2)cc(N2CCCC2)n1` [Example 1.211] had a pIC50 of 9.12.
`CC(C)=NOc1cc(N2CCCC2)nc(/C=C/c2nc(N(C)C)c3ccccc3n2)n1` [Example 2.039] gave a pIC50 of 9.08.
The same measure, in the same setting: with `Cc1nc2ccccc2nc1/C=C/c1cc(C(=O)NC2CCOCC2)nc(N2CCCC2)n1` [Example 4.001] the figure was 9.07; with `Cc1cc2ccccc2nc1/C=C/c1nc(C(=O)NC2CCOCC2)cc(N2CCCC2)n1` [Example 1.260], 8.60.

System in another series: not given
Assay: not given
Conditions: not given
Turning to `COc1ccc(-c2cc(N3CCC(O)C3)nc(/C=C/c3nc(N(C)C)c4ccccc4n3)n2)cc1OC` (stereo not shown) [Example 1.007, 1-(6-(3,4-dimethoxyphenyl)-2-{(E)-2-[4-(dimethylamino)quinazolin-2-yl]vinyl}pyrimidin-4-yl)pyrrolidin-3-ol], the melting point was 199 to 201 °C.
Compound `COc1ccc(-c2cc(N3CCn4ccnc4C3)nc(/C=C/c3nc(N(C)C)c4ccccc4n3)n2)cc1OC` [Example 1.008] came in with a melting point of 103 to 108 °C.
As for `COc1ccc(-c2cc(N3CCN(C)CC3)nc(/C=C/c3nc(-n4ccnc4)c4ccccc4n3)n2)cc1OC` [Example 1.010], the melting point fell in the range of 177 to 180 °C.
Still for that read-out and setting: in the case of `COc1ccc(-c2cc(N3CCC(NC(=O)CN(C)C)C3)nc(/C=C/c3nc(N(C)C)c4ccccc4n3)n2)cc1OC` (stereo not shown) [Example 1.104, N^1-[1-(6-(3,4-dimethoxyphenyl)-2-{(E)-2-[4-(dimethylamino)quinazolin-2-yl]vinyl}pyrimidin-4-yl)pyrrolidin-3-yl]-N^2,N^2-dimethylglycine amide] it was 126 to 131 °C.
